pIC50: −log10 of the molar value.

IC50 data for 11 compounds are collected here from patent US9440941B2, “Substituted chroman-6-yloxy-cycloalkanes and their use as pharmaceuticals” (SANOFI, priority 2013, dated 2016).

For assay [1], the target named is T1, human NCX1 (Homo sapiens, UniProt P32418).
T1 construct: expressed in transfected cells
Put plainly: Inhibition of Ca2+ influx into cells (NCX1 reverse mode), FLIPR Fluo-4 assay. Format: cell-based. The settings on record: inhibition of NCX1 in reverse mode (Ca2+ influx into cells); read-out: NCX1rv IC50. An outline of the steps:
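CHO cells stably expressing human NCX1, loaded with Fluo-4 AM, preincubated with compound 45 min at 16 °C in pH 7.4 buffer (3.5 mM CaCl2). Reverse mode triggered by 20 µM gramicidin (final); Fluo-4 fluorescence read at 520 nm every 2 s. IC50 from percentage inhibition of max-minus-min fluorescence.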

In assay [2] the target is T1, human NCX1. Put plainly: Inhibition of Ca2+ efflux out of cells (NCX1 forward mode), FLIPR calcium assay. Format: cell-based. Particulars: CHO cells stably expressing human NCX1; Ca2+ efflux after Ionomycin; read-out: NCX1fw IC50 (inhibition of NCX1 in forward mode). The text has this:
The sodium/calcium exchanger NCX1 can transport calcium ions and sodium ions through the cell membrane. The transport is an exchange of Ca^2+ and Na^+ in two directions depending on membrane potential and ion gradients. At the first direction, named “forward mode” or “calcium export mode”, Ca^2+ is transported out of the cell and Na^+ is transported into the cell. At the other direction, named “reverse mode” or “calcium import mode”, the transport directions are vice versa. The effect of the compounds of the invention on NCX1 was determined in CHO cells stably expressing human NCX1 (gene symbol SLC8A1; cf. WO 2009/115238). The assay is based on the monitoring of intracellular Ca^2+ concentrations using a calcium-sensitive fluorescence dye which is detected by means of a FLIPR device (Fluorimetric Imaging Plate Reader, Molecular Devices).
Assay Technology—Forward Mode
The assay is based on the monitoring of intracellular Ca^2+ concentrations using the PBX Calcium Assay Kit from BD (Becton, Dickinson and Company) with calcium indicator dye 51-9000177BKa (BD, 640177). CHO cells expressing NCX1 were loaded with the dye, and after a preincubation period with the test compound, lonomycin (Calbiochem, 407950) was added. lonomycin is an ionophor for Ca^2+ ions mediating an increase of intracellular Ca^2+ ions. Consequently, intracellular Ca^2+ ions are exchanged against extracellular Na^+ ions (Ca^2+ efflux, forward mode). The decrease of intracellular Ca^2+ ions was detected by measuring the fluorescence of the calcium indicator dye at a wavelength of 520 nm by a FLIPR device.
Briefly, similarly as for the reverse mode, for the forward mode transport assay 18000 cells per well were seeded into a 96 well microplate (Corning COSTAR 3904) and incubated overnight in culture medium (cf. above). A total volume of 100 μl medium per well was used. For the preparation of the FLIPR assay, the culture medium was removed from the plates and 100 μl of assay buffer (133.8 mM NaCl (Sigma, S5886); 4.7 mM KCl (Sigma, P3911); 1.25 mM MgCl2 (Merck, 1.05833.0250); 3.5 mM CaCl2 (Merck, 1.02083.0250); 5 mM glucose (Sigma, G7021); 10 mM Hepes (Sigma, H4034); pH 7.4)) were added to each well in a washing step. Assay buffer was removed, and 100 μl of a solution of the test compound in assay buffer in different concentrations were added into the wells. Further, 100 μl of dye solution (0.09% (v/v) calcium indicator dye, 9.1% (v/v) signal enhancer (from PBX Calcium Assay Kit); in assay buffer) were added into each well. The plates were incubated in the dark at room temperature for 60 min. Meanwhile a 10 μM solution of lonomycin in assay buffer (additionally containing 0.05% fetal calf serum (cf. above); 4° C.) was prepared and stored in the wells of a 96 well microplate (96 well microplate, polypropylene, U-shape (Greiner Bio-One, 650201)). The fluorescence monitoring was performed at 60 measuring points with measurement intervals of 2 sec. After the fifth measuring point, 50 μl of the lonomycin solution were added to each well of the assay plate to give a final lonomycin concentration of 2 μM. For the determination of the IC50 values the minimal fluorescence value was subtracted from the maximal fluorescence value for the fifteenth to fifty-fifth measuring points. The calculation of the IC50 values via the percentage inhibitions of Ca^2+ efflux out of cells (forward mode) effected by the test compound was performed in Biost@t Speed 2.0. “NCX1fw IC50” in Table 2 means the IC50 value (in μM (micromol/liter)) for inhibition of NCX1 in forward mode.

For `Cc1ccccc1[C@H]1CCc2cc(O[C@H]3CC[C@H](C(=O)NCCO)CC3)ccc2O1` [Example 267, trans-4-((R)-2-o-tolyl-chroman-6-yloxy)-cyclohexanecarboxylic acid (2-hydroxy-ethyl)-amide], the pIC50 is 6.70 on human NCX1 [1] and 5.36 at human NCX1 [2].
The matching figures for `Cc1ccccc1C1CCc2cc(O[C@H]3CC[C@@H](C(=O)NCCO)CC3)ccc2O1` (single isomer, unassigned) [Example 269, cis-4-(2-o-tolyl-chroman-6-yloxy)-cyclohexanecarboxylic acid (2-hydroxy-ethyl)-amide]: 6.40 and 5.51.
On the same counts, the results for `Cc1ccccc1C1CCc2cc(O[C@H]3CC[C@@H](C(=O)NCCO)CC3)ccc2O1` (single isomer, unassigned) [Example 270, cis-4-(2-o-tolyl-chroman-6-yloxy)-cyclohexanecarboxylic acid (2-hydroxy-ethyl)-amide] are 7.00 and 6.00.
For “N-But-3-enyl-4-(2-phenylchroman-6-yloxy)-cyclohexylamine [compound 148]”, the pIC50 on human NCX1 [1] is 6.05.
Turning to `O=C(CO)N[C@H]1CC[C@H](Oc2ccc3c(c2)CCC(c2ccccc2)O3)CC1` (relative stereo) [compound 278], the pIC50 on human NCX1 [1] is 6.70.
On the same count and under the same terms, the figure for `Cc1ccc(F)cc1C1CCc2cc(O[C@H]3CC[C@H](NC(=O)CN)CC3)ccc2O1` (relative stereo) [compound 186] is 6.40; for `CCCNC1CCC(Oc2ccc3c(c2)CCC(c2ccccc2F)O3)CC1` (centres unmarked) [compound 213] it is 5.85.
Same read-out and setting: the figure for `c1ccc(C2CCc3cc(O[C@H]4CC[C@H](N(Cc5ccsc5)Cc5ccsc5)CC4)ccc3O2)cc1` (stereo partly drawn) [compound 79, [trans-4-(2-Phenylchroman-6-yloxy)]-N,N-bis(thiophen-3-ylmethyl)cyclohexylamine] is 4.96; for `CCC(C)CCNC1CCC(Oc2ccc3c(c2)CCC(c2ccccc2)O3)CC1` (centres unmarked) [compound 114] it is 6.15.
For `O=C(CCn1cncn1)N[C@H]1CC[C@H](Oc2ccc3c(c2)CCC(c2ccccc2)O3)CC1` (relative stereo) [compound 38], at human NCX1 [1], the negative logarithm of the IC50 (pIC50) is 6.40.
Same read-out and setting: the figure for `O=C(CC1CC1)N[C@H]1CC[C@H](Oc2ccc3c(c2)CCC(c2ccccc2F)O3)CC1` (relative stereo) [compound 252] is 6.52.

As usually defined, the pIC50 is −log10 of the IC50, conventionally taken in molar units.
